In US20180155344A1, “TRICYCLIC PIPERIDINE COMPOUNDS” (ACTELION PHARMACEUTICALS LTD, priority 2015, published 2018):
pIC50: −log10 of the molar value.

Each molecule was assayed against T1, human TPH1 (Homo sapiens, UniProt P17752) (assay: biochemical). Conditions: not given.
T1 sequence (P17752 1-444): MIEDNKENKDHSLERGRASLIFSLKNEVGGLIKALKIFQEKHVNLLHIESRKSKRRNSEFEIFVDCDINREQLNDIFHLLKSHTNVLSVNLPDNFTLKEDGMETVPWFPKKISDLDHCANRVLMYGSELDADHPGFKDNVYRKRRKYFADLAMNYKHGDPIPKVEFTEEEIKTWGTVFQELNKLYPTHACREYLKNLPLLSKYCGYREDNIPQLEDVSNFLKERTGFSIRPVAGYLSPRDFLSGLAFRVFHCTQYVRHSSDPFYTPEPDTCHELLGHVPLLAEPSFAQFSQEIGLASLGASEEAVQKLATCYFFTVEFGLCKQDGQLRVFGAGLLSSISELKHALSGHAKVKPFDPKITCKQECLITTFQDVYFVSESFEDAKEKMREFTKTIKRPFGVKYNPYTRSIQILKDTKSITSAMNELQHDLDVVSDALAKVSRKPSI
Text: Biochemical In Vitro Assay Using Fluorescence Readout
To generate the enzyme, full length human TPH1 is cloned into the plasmid pET20b(+) (Novagen) and expressed in E. coli. The bacterial cells are ruptured by sonication on ice and the lysate is cleared by centrifugation. The resulting protein in the pellet is re-extracted and TPH1 is purified from the obtained lysate by affinity chromatography using a pterin cosubstrate analog immobilized to the resin of the column. The protein is further purified by size exclusion chromatography to remove protein aggregates. The activity of TPH1 is determined by using a fluorescence assay. The enzyme activity assay is carried out at 15° C. with atmosphere oxygen for the duration of 60 minutes in a volume of 64 μl. The reaction is carried out in a 0.1 M Tris-HCl buffer, adjusted to pH 7.6, containing 1 mM DTT, 0.2 mg/mL catalase, 100 μM (±)-6-methyl-5,6,7,8-tetrahydropterine dihydrochloride, 40 μM L-tryptophan, and 40-80 nM of TPH1. The reaction is started by bringing together L-tryptophan with all the other reaction substituents and stopped by quenching with perchloric acid (HClO4). The amount of 5-hydroxy-L-tryptophan produced during the enzymatic reaction is determined by fluorescence readout. Fluorescence, as determined at 540 nm when excited at 300 nm wavelength, increases proportionally to the 5-hydroxy-L-tryptophan formed. Compounds are prepared as 10 mM stock solution in DMSO, then diluted in 384-well plates using DMSO followed by a transfer of the dilutions into the assay plate. Fluorescence is measured for each well and the fluorescence at 540 nm wavelength is compared to the fluorescence of the vehicle in place of compound. […] The calculated IC50 values may fluctuate depending on the daily biochemical assay performance. Fluctuations of this kind are known to those skilled in the art.

pIC50	Molecule
6.84	COc1ccc(C2c3c(nc4ccc(Cl)cn34)CCN2C(=O)COc2ccc3ccccc3c2)cc1OC (stereo not drawn) [Example 9.1.1, 1-(8-chloro-1-(3,4-dimethoxyphenyl)-3,4-dihydroimidazo[1,2-a:5,4-c′]dipyridin-2(1H)-yl)-2-(naphthalen-2-yloxy)ethan-1-one]
6.62	O=C(COc1ccc(CN2CCOCC2)cc1Cl)N1CCc2nc3cc(C(F)(F)F)ccn3c2C1c1ccc(F)c(F)c1 (stereo not drawn) [Example 3.34.2, 2-(2-chloro-4-(morpholinomethyl)phenoxy)-1-(1-(3,4-difluorophenyl)-7-(trifluoromethyl)-3,4-dihydroimidazo[1,2-a:5,4-c′]dipyridin-2(1H)-yl)ethan-1-one]
7.49	COc1ccc(C2c3c(nc4cc(C)ccn34)CCN2C(=O)COc2ccc(Cl)cc2Cl)cc1OC (stereo not drawn) [Example 4.1.1, 2-(2,4-dichlorophenoxy)-1-(1-(3,4-dimethoxyphenyl)-7-methyl-3,4-dihydroimidazo[1,2-a:5,4-c′]dipyridin-2(1H)-yl)ethan-1-one]
6.68	COc1ccc(C2c3c(nc4cc(Cl)ccn34)CCN2C(=O)COc2nn(C)c(C(F)(F)F)c2Cl)c(F)c1 (stereo not drawn) [Example 2.3.3, 1-(7-chloro-1-(2-fluoro-4-methoxyphenyl)-3,4-dihydroimidazo[1,2-a:5,4-c′]dipyridin-2(1H)-yl)-2-((4-chloro-1-methyl-5-(trifluoromethyl)-1H-pyrazol-3-yl)oxy)ethan-1-one]
5.58	CS(=O)(=O)Nc1ccc(OCC(=O)N2CCc3nc4c(F)cccn4c3C2c2ccc(Cl)cc2F)c(Cl)n1 (stereo not drawn) [Example 15.1.1, N-(6-chloro-5-(2-(1-(4-chloro-2-fluorophenyl)-6-fluoro-3,4-dihydroimidazo[1,2-a:5,4-c′]dipyridin-2(1H)-yl)-2-oxoethoxy)pyridin-2-yl)methanesulfonamide]
7.23	COc1ccc(C2c3c(nc4cc(Cl)ccn34)CCN2C(=O)COc2ccc(CN3CCOCC3)nc2Cl)c(F)c1 (stereo not drawn) [Example 2.3.2, 1-(7-chloro-1-(2-fluoro-4-methoxyphenyl)-3,4-dihydroimidazo[1,2-a:5,4-c′]dipyridin-2(1H)-yl)-2-((2-chloro-6-(morpholinomethyl)pyridin-3-yl)oxy)ethan-1-one]
7.24	CN(C)c1ccc(OCC(=O)N2CCc3nc4ccccn4c3C2c2ccc(Cl)cc2F)c(Cl)n1 (stereo not drawn) [Example 1.4.12, 1-(1-(4-chloro-2-fluorophenyl)-3,4-dihydroimidazo[1,2-a:5,4-c′]dipyridin-2(1H)-yl)-2-((2-chloro-6-(dimethylamino)pyridin-3-yl)oxy)ethan-1-one]
7.49	Cc1ccc(C2c3c(nc4cc(C(F)(F)F)ccn34)CCN2C(=O)COc2ccc(CN3CCOCC3)cc2Cl)cc1 (stereo not drawn) [Example 3.23.2, 2-(2-chloro-4-(morpholinomethyl)phenoxy)-1-(1-(p-tolyl)-7-(trifluoromethyl)-3,4-dihydroimidazo[1,2-a:5,4-c′]dipyridin-2(1H)-yl)ethan-1-one]
6.43	O=C(COc1ccc2ccccc2c1)N1CCc2nc3cc(C(F)(F)F)ccn3c2C1c1cc(-c2ccc(F)cc2)on1 (stereo not drawn) [Example 3.47.1, 1-(1-(5-(4-fluorophenyl)isoxazol-3-yl)-7-(trifluoromethyl)-3,4-dihydroimidazo[1,2-a:5,4-c′]dipyridin-2(1H)-yl)-2-(naphthalen-2-yloxy)ethan-1-one]
8.00	COc1ccc(C2c3c(nc4cc(C)ccn34)CCN2C(=O)COc2ccc3ccccc3c2)cc1OC (stereo not drawn) [Example 4.1.2, 1-(1-(3,4-dimethoxyphenyl)-7-methyl-3,4-dihydroimidazo[1,2-a:5,4-c′]dipyridin-2(1H)-yl)-2-(naphthalen-2-yloxy)ethan-1-one]
6.65	CC(C)c1noc(C2c3c(nc4cc(Cl)ccn34)CCN2C(=O)COc2ccc(N3CCOCC3)nc2Cl)n1 (stereo not drawn) [Example 2.6.1, 1-(7-chloro-1-(3-isopropyl-1,2,4-oxadiazol-5-yl)-3,4-dihydroimidazo[1,2-a:5,4-c′]dipyridin-2(1H)-yl)-2-((2-chloro-6-morpholinopyridin-3-yl)oxy)ethan-1-one]
6.58	COc1ccc(C2c3c(nc4cc(C(F)(F)F)ccn34)CCN2C(=O)COc2cccnc2C)cc1OC (stereo not drawn) [Example 3.1.16]
6.69	O=C(COc1ccc2ccccc2c1)N1CCc2nc3cc(C(F)(F)F)ccn3c2C1c1cc(-c2ccccc2)on1 (stereo not drawn) [Example 3.46.2, 2-(naphthalen-2-yloxy)-1-(1-(5-phenylisoxazol-3-yl)-7-(trifluoromethyl)-3,4-dihydroimidazo[1,2-a:5,4-c′]dipyridin-2(1H)-yl)ethan-1-one]
7.42	COCc1ccc(C2c3c(nc4ccccn34)CCN2C(=O)COc2ccc(C(=O)NC3CC3)nc2Cl)c(F)c1 (stereo not drawn) [Example 1.18.1, 6-chloro-N-cyclopropyl-5-(2-(1-(2-fluoro-4-(methoxymethyl)phenyl)-3,4-dihydroimidazo[1,2-a:5,4-c′]dipyridin-2(1H)-yl)-2-oxoethoxy)picolinamide]
7.28	COc1ccc(C2c3c(nc4cc(Cl)ccn34)CCN2C(=O)COc2ccc(Cl)cc2Cl)cc1OC (stereo not drawn) [Example 2.1.6, 1-(7-chloro-1-(3,4-dimethoxyphenyl)-3,4-dihydroimidazo[1,2-a:5,4-c′]dipyridin-2(1H)-yl)-2-(2,4-dichlorophenoxy)ethan-1-one]
6.84	CCc1nc(C)ccc1OCC(=O)N1CCc2nc3ccccn3c2C1c1ncc(C2CC2)cc1F (stereo not drawn) [Example 1.12.3, 1-(1-(5-cyclopropyl-3-fluoropyridin-2-yl)-3,4-dihydroimidazo[1,2-a:5,4-c′]dipyridin-2(1H)-yl)-2-((2-ethyl-6-methylpyridin-3-yl)oxy)ethan-1-one]
7.64	COc1ccc(C2c3c(nc4cc(Cl)ccn34)CCN2C(=O)COc2ccc(CN3CCOCC3)cc2Cl)cc1OCCO (stereo not drawn) [Example 2.13.2, 1-(7-chloro-1-(3-(2-hydroxyethoxy)-4-methoxyphenyl)-3,4-dihydroimidazo[1,2-a:5,4-c′]dipyridin-2(1H)-yl)-2-(2-chloro-4-(morpholinomethyl)phenoxy)ethan-1-one]
7.59	Cc1ccc(C2c3c(nc4cc(C(F)(F)F)ccn34)CCN2C(=O)COc2ccc3ccccc3c2)cn1 (stereo not drawn) [Example 3.38.1, 1-(1-(6-methylpyridin-3-yl)-7-(trifluoromethyl)-3,4-dihydroimidazo[1,2-a:5,4-c′]dipyridin-2(1H)-yl)-2-(naphthalen-2-yloxy)ethan-1-one]
7.38	Cc1nc(N(C)C)ccc1OCC(=O)N1CCc2nc3ccccn3c2C1c1ccc(C2CC2)cc1F (stereo not drawn) [Example 1.5.3, 1-(1-(4-cyclopropyl-2-fluorophenyl)-3,4-dihydroimidazo[1,2-a:5,4-c′]dipyridin-2(1H)-yl)-2-((6-(dimethylamino)-2-methylpyridin-3-yl)oxy)ethan-1-one]
8.40	CCc1c(OCC(=O)N2CCc3nc4ccccn4c3C2c2ccc(OC)c(OC)c2)ccc2ccccc12 (stereo not drawn) [Example 1.1.7, 1-(1-(3,4-dimethoxyphenyl)-3,4-dihydroimidazo[1,2-a:5,4-c′]dipyridin-2(1H)-yl)-2-((1-ethylnaphthalen-2-yl)oxy)ethan-1-one]

Same assay, conditions: Table 3; inhibitory activity on tryptophan hydroxylase 1

Molecule	pIC50
1-(1-(3,4-dimethoxyphenyl)-7-(trifluoromethyl)-3,4-dihydroimidazo[1,2-a:5,4-c′]dipyridin-2(1H)-yl)-2-(3-(trifluoromethyl)phenoxy)ethan-1-one [Example 3.1.10]	6.60
